Measurements as given in patent US11078193B2 (priority 2014, dated 2021).

What was measured:
HBV = assay: anti HBV activity, HepG2.117 inducibly HBV producing cell line (Tet-off), intracellular HBV DNA by realtime PCR; format: cell-based; conditions: Hepatitis B virus, 72 h, HepG2.117 cells, 3 days of treatment
[1] = Cytotoxicity, HepG2 cells, Resazurin assay; format: cell-based; conditions: human

## C[C@H](NS(=O)(=O)c1cn(C)c(C(=O)Nc2ccnc(C#N)c2)c1F)C(C)(F)F [Compound 58, N-(2-cyano-4-pyridyl)-4-[[(1S)-2,2-difluoro-1-methyl-propyl]sulfamoyl]-3-fluoro-1-methyl-pyrrole-2-carboxamide]
HBV
  EC50: 140 nM
[1]
  CC50 at 4 days: > 25000 nM

## C[C@H](NS(=O)(=O)c1cn(C)c(C(=O)Nc2ccnc(Cl)c2)c1F)C(C)(F)F [Compound 59, N-(2-chloro-4-pyridyl)-4-[[(1S)-2,2-difluoro-1-methyl-propyl]sulfamoyl]-3-fluoro-1-methyl-pyrrole-2-carboxamide]
HBV
  EC50: 70 nM
[1]
  CC50 at 4 days: > 25000 nM

## C[C@H](NS(=O)(=O)c1cn(C)c(C(=O)Nc2ccnc(C(F)(F)F)c2)c1F)C(C)(F)F [Compound 62, 4-[[(1S)-2,2-difluoro-1-methyl-propyl]sulfamoyl]-3-fluoro-1-methyl-N-[2-(trifluoromethyl)-4-pyridyl]pyrrole-2-carboxamide]
HBV
  EC50: 190 nM
[1]
  CC50 at 4 days: > 25000 nM

## Cn1cc(S(=O)(=O)NC2(C)CC(F)(F)C2)c(Cl)c1C(=O)Nc1ccnc(C(F)(F)F)c1 [Compound 66, 3-chloro-4-[(3,3-difluoro-1-methyl-cyclobutyl)sulfamoyl]-1-methyl-N-[2-(trifluoromethyl)-4-pyridyl]pyrrole-2-carboxamide]
HBV
  EC50: 90 nM
[1]
  CC50 at 4 days: > 25000 nM

## CC[C@@H](C)NS(=O)(=O)c1cn(C)c(C(=O)Nc2ccnc(C#N)c2)c1F [Compound 67]
HBV
  EC50: 30 nM
[1]
  CC50 at 4 days: > 25000 nM

## CC[C@@H](C)NS(=O)(=O)c1cn(C)c(C(=O)Nc2ccnc(C(F)(F)F)c2)c1F [Compound 68, 3-fluoro-1-methyl-4-[[(1R)-1-methylpropyl]sulfamoyl]-N-[2-(trifluoromethyl)-4-pyridyl]pyrrole-2-carboxamide]
HBV
  EC50: 50 nM
[1]
  CC50 at 4 days: > 25000 nM

## CC[C@@H](C)NS(=O)(=O)c1cn(C)c(C(=O)Nc2ccnc(Cl)c2)c1F [Compound 69, N-(2-chloro-4-pyridyl)-3-fluoro-1-methyl-4-[[(1R)-1-methylpropyl]sulfamoyl]pyrrole-2-carboxamide]
HBV
  EC50: 30 nM
[1]
  CC50 at 4 days: > 25000 nM

## CC[C@@H](C)NS(=O)(=O)c1cn(C)c(C(=O)Nc2ccnc(C(F)(F)F)c2)c1Cl [Compound 70, 3-chloro-1-methyl-4-[[(1R)-1-methylpropyl]sulfamoyl]-N-[2-(trifluoromethyl)-4-pyridyl]pyrrole-2-carboxamide]
HBV
  EC50: 150 nM
[1]
  CC50 at 4 days: > 25000 nM

## Cc1c(S(=O)(=O)N[C@H](C)C(F)(F)F)c(F)c(C(=O)Nc2ccnc(C#N)c2)n1C [Compound 71, N-(2-cyano-4-pyridyl)-3-fluoro-1,5-dimethyl-4-[[(1R)-2,2,2-trifluoro-1-methyl-ethyl]sulfamoyl]pyrrole-2-carboxamide]
HBV
  EC50: 20 nM
[1]
  CC50 at 4 days: > 25000 nM

## CC[C@@H](C)NS(=O)(=O)c1cn(C)c(C(=O)Nc2ccnc(C#N)c2)c1Cl [Compound 72, 3-chloro-N-(2-cyano-4-pyridyl)-1-methyl-4-[[(1R)-1-methylpropyl]-sulfamoyl]pyrrole-2-carboxamide]
HBV
  EC50: 100 nM
[1]
  CC50 at 4 days: > 25000 nM

## CC[C@@H](C)NS(=O)(=O)c1cn(C)c(C(=O)Nc2ccnc(Cl)c2)c1Cl [Compound 73, 3-chloro-N-(2-chloro-4-pyridyl)-1-methyl-[[(1R)-1-methylpropyl]-sulfamoyl]pyrrole-2-carboxamide]
HBV
  EC50: 90 nM
[1]
  CC50 at 4 days: 21600 nM

## C[C@@H](NS(=O)(=O)c1cn(C)c(C(=O)Nc2ccc(F)c(Cl)n2)c1Cl)C(F)(F)F [Compound 75, 3-chloro-N-(6-chloro-5-fluoro-2-pyridyl)-1-methyl-4-[[(1R)-2,2,2-trifluoro-1-methyl-ethyl]sulfamoyl]pyrrole-2-carboxamide]
HBV
  EC50: 60 nM
[1]
  CC50 at 4 days: > 25000 nM

## C[C@@H](NS(=O)(=O)c1cn(C)c(C(=O)Nc2ccc(F)c(Br)n2)c1Cl)C(F)(F)F [Compound 76, N-(6-bromo-5-fluoro-2-pyridyl)-3-chloro-1-methyl-4-[[(1R)-2,2,2-trifluoro-1-methyl-ethyl]sulfamoyl]pyrrole-2-carboxamide]
HBV
  EC50: 50 nM
[1]
  CC50 at 4 days: > 25000 nM

## C[C@@H](NS(=O)(=O)c1cn(C)c(C(=O)Nc2ccc(F)nc2F)c1Cl)C(F)(F)F [Compound 77, 3-chloro-N-(2,6-difluoro-3-pyridyl)-1-methyl-4-[[(1R)-2,2,2-trifluoro-1-methyl-ethyl]sulfamoyl]pyrrole-2-carboxamide]
HBV
  EC50: 300 nM
[1]
  CC50 at 4 days: > 25000 nM

## CC(C)NS(=O)(=O)c1cn(C)c(C(=O)Nc2ccnc(C(F)(F)F)c2)c1F [Compound 78, 3-fluoro-4-(isopropylsulfamoyl)-1-methyl-N-[2-(trifluoromethyl)-4-pyridyl]pyrrole-2-carboxamide]
HBV
  EC50: 260 nM
[1]
  CC50 at 4 days: > 25000 nM

## CC(C)NS(=O)(=O)c1cn(C)c(C(=O)Nc2ccnc(Cl)c2)c1F [Compound 79, N-(2-chloro-4-pyridyl)-3-fluoro-4-(isopropylsulfamoyl)-1-methyl-pyrrole-2-carboxamide]
HBV
  EC50: 150 nM
[1]
  CC50 at 4 days: > 25000 nM

## CC[C@H](NS(=O)(=O)c1cn(C)c(C(=O)Nc2ccnc(C(F)F)c2)c1Cl)C(F)(F)F [Compound 84, 3-chloro-N-[2-(difluoromethyl)-4-pyridyl]-1-methyl-4-[[(1S)-1-(trifluoromethyl)propyl]sulfamoyl]pyrrole-2-carboxamide]
HBV
  EC50: 110 nM
[1]
  CC50 at 4 days: > 25000 nM

## CC[C@@H](C)NS(=O)(=O)c1cn(C)c(C(=O)Nc2ccnc(C(F)F)c2)c1F [Compound 86, N-[2-(difluoromethyl)-4-pyridyl]-3-fluoro-1-methyl-4-[[(1R)-1-methylpropyl]sulfamoyl]pyrrole-2-carboxamide]
HBV
  EC50: 40 nM
[1]
  CC50 at 4 days: 21600 nM

## C[C@H](CO)NS(=O)(=O)c1cn(C)c(C(=O)Nc2ccnc(Cl)c2)c1Cl [Compound 89, 3-chloro-N-(2-chloro-4-pyridyl)-4-[[(1R)-2-hydroxy-1-methyl-ethyl]sulfamoyl]-1-methyl-pyrrole-2-carboxamide]
HBV
  EC50: 360 nM
[1]
  CC50 at 4 days: > 25000 nM

## Cn1cc(S(=O)(=O)N[C@H]2CCOC2)c(Cl)c1C(=O)Nc1ccnc(Cl)c1 [Compound 91, 3-chloro-N-(2-chloro-4-pyridyl)-1-methyl-4-[[(3S)-tetrahydrofuran-3-yl]sulfamoyl]pyrrole-2-carboxamide]
HBV
  EC50: 200 nM
[1]
  CC50 at 4 days: > 25000 nM

## Cn1cc(S(=O)(=O)NC2(CO)COC2)c(Cl)c1C(=O)Nc1ccnc(Cl)c1 [Compound 92]
HBV
  EC50: 440 nM
[1]
  CC50 at 4 days: > 25000 nM

## Cn1cc(S(=O)(=O)N[C@H]2C[C@@H](O)C2)c(Cl)c1C(=O)Nc1ccnc(Cl)c1 [Compound 93, 3-chloro-N-(2-chloro-4-pyridyl)-4-[(3-hydroxycyclobutyl)sulfamoyl]-1-methyl-pyrrole-2-carboxamide]
HBV
  EC50: 330 nM
[1]
  CC50 at 4 days: > 25000 nM

## C[C@@H](NS(=O)(=O)c1cn(C)c(C(=O)Nc2ccnc(Cl)c2)c1Cl)C(C)(F)F [Compound 94, 3-chloro-N-(2-chloro-4-pyridyl)-4-[[(1R)-2,2-difluoro-1-methyl-propyl]sulfamoyl]-1-methyl-pyrrole-2-carboxamide]
HBV
  EC50: 30 nM
[1]
  CC50 at 4 days: > 25000 nM

## C[C@@H](NS(=O)(=O)c1cc(C(=O)Nc2ccnc(C#N)c2)n(C)c1)C(C)(F)F [Compound 101, N-(2-cyano-4-pyridyl)-4-[[(1R)-2,2-difluoro-1-methyl-propyl]sulfamoyl]-1-methyl-pyrrole-2-carboxamide]
HBV
  EC50: 430 nM
[1]
  CC50 at 4 days: > 25000 nM

## C[C@@H](NS(=O)(=O)c1cc(C(=O)Nc2ccnc(F)c2)n(C)c1)C(C)(F)F [Compound 102, 4-[[(1R)-2,2-difluoro-1-methyl-propyl]sulfamoyl]-N-(2-fluoro-4-pyridyl)-1-methyl-pyrrole-2-carboxamide]
HBV
  EC50: 180 nM
[1]
  CC50 at 4 days: > 25000 nM

## C[C@@H](NS(=O)(=O)c1cc(C(=O)Nc2ccnc(Cl)c2)n(C)c1)C(C)(F)F [Compound 103, N-(2-chloro-4-pyridyl)-4-[[(1R)-2,2-difluoro-1-methyl-propyl]sulfamoyl]-1-methyl-pyrrole-2-carboxamide]
HBV
  EC50: 140 nM
[1]
  CC50 at 4 days: > 25000 nM

## C[C@@H](NS(=O)(=O)c1cn(C)c(C(=O)Nc2ccnc(Cl)c2F)c1Cl)C(C)(F)F [Compound 107, 3-chloro-N-(2-chloro-3-fluoro-4-pyridyl)-4-[[(1R)-2,2-difluoro-1-methyl-propyl]sulfamoyl]-1-methyl-pyrrole-2-carboxamide]
HBV
  EC50: 20 nM
[1]
  CC50 at 4 days: > 25000 nM

## Cn1cc(S(=O)(=O)NC2(C(F)(F)F)CCC2)c(Cl)c1C(=O)Nc1cc(F)nc(F)c1 [Compound 109, 3-chloro-N-(2,6-difluoro-4-pyridyl)-1-methyl-4-[[1-(trifluoromethyl)cyclobutyl]sulfamoyl]pyrrole-2-carboxamide]
HBV
  EC50: 10 nM
[1]
  CC50 at 4 days: > 25000 nM

## Cn1cc(S(=O)(=O)NC2(C(F)(F)F)CCC2)c(Cl)c1C(=O)Nc1ccnc(Br)c1 [Compound 110, N-(2-bromo-4-pyridyl)-3-chloro-1-methyl-4-[[1-(trifluoromethyl)cyclobutyl]sulfamoyl]pyrrole-2-carboxamide]
HBV
  EC50: 20 nM
[1]
  CC50 at 4 days: > 25000 nM

## Cn1cc(S(=O)(=O)NC2(C(F)(F)F)CCC2)c(Cl)c1C(=O)Nc1ccnc(F)c1 [Compound 111, 3-chloro-N-(2-fluoro-4-pyridyl)-1-methyl-4-[[1-(trifluoromethyl)cyclobutyl]sulfamoyl]pyrrole-2-carboxamide]
HBV
  EC50: 30 nM
[1]
  CC50 at 4 days: > 25000 nM

## CC[C@@H](NS(=O)(=O)c1cn(C)c(C(=O)Nc2ccnc(Cl)c2F)c1Cl)C(F)(F)F [Compound 112, 3-chloro-N-(2-chloro-3-fluoro-4-pyridyl)-1-methyl-[[(1R)-1-(trifluoromethyl)propyl]sulfamoyl]pyrrole-2-carboxamide]
HBV
  EC50: 20 nM
[1]
  CC50 at 4 days: > 25000 nM

## Cn1cc(S(=O)(=O)NC2(C)CC(F)(F)C2)c(Cl)c1C(=O)Nc1ccnc(Cl)c1F [Compound 114, 3-chloro-N-(2-chloro-3-fluoro-4-pyridyl)-4-[(3,3-difluoro-1-methyl-cyclobutyl)sulfamoyl]-1-methyl-pyrrole-2-carboxamide]
HBV
  EC50: 10 nM
[1]
  CC50 at 4 days: > 25000 nM
